Results: ChEMBL document CHEMBL1201862, “PubChem BioAssay data set” (2004)
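Compound exposure: 48 hours, 5 concentrations, 96-well plates. At the GI50, growth is halved.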 Calls of active or inactive are those of the source. Cut-off read from the data, not from the text of the source: active = GI50 up to about 1.1 µM and inactive = higher.

Legend:
Test in all cases: NCI anticancer screen, dose series, 48 h
SW-620 = test system: SW-620
K562 = test system: K562
HL-60 = test system: HL-60
SF-268 = test system: SF-268
HCT-15 = test system: HCT-15
SN12C = test system: SN12C
SNB-19 = test system: SNB-19
A549 = test system: A549
LXFL 529 = test system: LXFL 529
CAKI-1 = test system: CAKI-1
Malme-3M = test system: Malme-3M
ACHN = test system: ACHN
HCT-116 = test system: HCT-116
M19-MEL = test system: M19-MEL
HT-29 = test system: HT-29
UACC-257 = test system: UACC-257
HOP-92 = test system: HOP-92
SR = test system: SR
MCF7 = test system: MCF7
PC-3 = test system: PC-3

Row | Compound | GI50 (SW-620) | GI50 (K562) | GI50 (HL-60) | GI50 (SF-268) | GI50 (HCT-15) | GI50 (SN12C) | GI50 (SNB-19) | GI50 (A549) | GI50 (LXFL 529) | GI50 (CAKI-1) | GI50 (Malme-3M) | GI50 (ACHN) | GI50 (HCT-116) | GI50 (M19-MEL) | GI50 (HT-29) | GI50 (UACC-257) | GI50 (HOP-92) | GI50 (SR) | GI50 (MCF7) | GI50 (PC-3)
1 | CC(=O)O[C@H]1CC[C@@]2(C)C(=CC[C@@H]3C2CC[C@]2(C)Nc4nc5ccccc5cc4CC32)C1 (stereo partly specified) | 2.59 µM (inactive) | 3.21 µM (inactive) | 4.32 µM (inactive) | 4.2 µM (inactive) | 2.51 µM | 7.1 µM (inactive) | 2.97 µM (inactive) | 3.34 µM (inactive) | 3.38 µM (inactive) | 4.28 µM (inactive) | 6.55 µM (inactive) | 4.72 µM (inactive) | 1.86 µM (inactive) | 3.59 µM (inactive) | 1.82 µM (inactive) | 3.66 µM (inactive) |  |  |  | 
2 | CC(=O)Nc1ccc(-c2nnc(SCC(=O)Nc3ccc(Cl)cc3)o2)cc1 | 6.21 µM (inactive) | 5.83 µM (inactive) | 16.3 µM (inactive) | 4.53 µM (inactive) | 13.9 µM | 10.4 µM (inactive) | 20 µM (inactive) | 16.8 µM (inactive) | 8.97 µM (inactive) | 18 µM (inactive) | 13.6 µM (inactive) | 12.7 µM (inactive) | 7.74 µM (inactive) | 11.7 µM (inactive) | 10.6 µM (inactive) | 16.4 µM (inactive) |  |  |  | 
3 | COc1cc2c3c(c1OC)/C(=N/OS(=O)(=O)c1ccc(C)cc1)CC3N(S(=O)(=O)c1ccc(C)cc1)CC2 (stereo unspecified) | > 100 µM (inactive) | > 100 µM (inactive) | > 100 µM (inactive) | > 100 µM (inactive) |  | > 100 µM (inactive) | > 100 µM (inactive) | > 100 µM (inactive) | > 100 µM (inactive) | > 100 µM (inactive) | > 100 µM (inactive) | > 100 µM (inactive) | > 100 µM (inactive) | > 100 µM (inactive) | > 100 µM (inactive) | > 100 µM (inactive) | > 100 µM (inactive) |  |  | 
4 | Cc1[nH]c2ccccc2c1C1CC(=O)NC1=O (stereo unspecified) | > 100 µM (inactive) | > 100 µM (inactive) | > 100 µM (inactive) |  | > 100 µM |  |  | > 100 µM (inactive) |  | > 100 µM (inactive) | > 100 µM (inactive) | > 100 µM (inactive) | > 100 µM (inactive) | > 100 µM (inactive) | > 10 µM (inactive) | > 100 µM (inactive) |  |  |  | 
5 | CC(C)(c1ccccc1)c1ccc(Oc2ccc3c(c2)-c2nc-3nc3[nH]c(nc4nc(nc5[nH]c(n2)c2ccc(Oc6ccc(C(C)(C)c7ccccc7)cc6)cc52)-c2cc(Oc5ccc(C(C)(C)c6ccccc6)cc5)ccc2-4)c2ccc(Oc4ccc(C(C)(C)c5ccccc5)cc4)cc32)cc1 | > 100 µM (inactive) | > 100 µM (inactive) | > 100 µM (inactive) |  |  |  | 92 µM (inactive) | > 100 µM (inactive) | > 100 µM (inactive) |  | > 100 µM (inactive) | > 100 µM (inactive) | > 100 µM (inactive) | > 100 µM (inactive) | > 100 µM (inactive) | > 100 µM (inactive) | 17.8 µM (inactive) |  |  | 
6 | Cc1ccc(S(=O)(=O)N/N=C/c2oc(-c3ccncc3)c(-c3ccncc3)c2[N+](=O)[O-])cc1 | > 100 µM (inactive) | > 100 µM (inactive) | > 100 µM (inactive) | > 100 µM (inactive) | > 100 µM | > 100 µM (inactive) | > 100 µM (inactive) | > 100 µM (inactive) | > 100 µM (inactive) | > 100 µM (inactive) | > 100 µM (inactive) | > 100 µM (inactive) | > 100 µM (inactive) | > 100 µM (inactive) | > 100 µM (inactive) | > 100 µM (inactive) |  | > 100 µM (inactive) |  | 
7 | COC(=O)C1C(O)C(C)C(=O)C(C)/C=C\C=C(C)C(=O)Nc2c(C)c(OC(C)=O)c3c(c2O)C(=O)C(C)=C2OCOC(=C23)C(C)=CC(C)(O)C(O)C(C)C1O (stereo unspecified) | 33.8 µM (inactive) | 19.1 µM (inactive) | 18.6 µM (inactive) | 99.8 µM (inactive) | 21.6 µM | 31.4 µM (inactive) | > 100 µM (inactive) | 20.2 µM (inactive) |  | 44.2 µM (inactive) | 22.2 µM (inactive) | 26.2 µM (inactive) | 24.9 µM (inactive) |  | 29.9 µM (inactive) | 18.8 µM (inactive) | 50.5 µM (inactive) | 30.3 µM (inactive) | 27.4 µM (inactive) | 25.1 µM (inactive)
8 | C=C(C(=O)OC1C(CO)OC(OCC2CC[C@@H]3C[C@]4(OC(=O)C3=C)C(C)=CC(=O)C24)C(O)C1O)[C@@H]1CCC(CO)C2C(=O)C=C(C)[C@@]2(O)C1 (stereo partly specified) | 0.603 µM (active) | 0.783 µM (active) | 0.592 µM (active) | 3.4 µM (inactive) | 0.631 µM | 1.32 µM (inactive) | 16.4 µM (inactive) | 4.37 µM (inactive) |  | 1.36 µM (inactive) | 1.46 µM (inactive) | 1.44 µM (inactive) | 1.22 µM (inactive) |  | 1.73 µM (inactive) | 1.84 µM (inactive) | 2.63 µM (inactive) | 0.646 µM (active) | 1.16 µM (inactive) | 1.54 µM (inactive)
